Data from US11925629B2, “Heterocyclic inhibitors of ERK1 and ERK2 and their use in the treatment of cancer” (Asana Biosciences, LLC, priority 2015, dated 2024).
pIC50: −log10 of the molar value.

What was measured:
[1] = test system: HT-29 (colorectal carcinoma, B-RafV600E) cells; experiment: Cell proliferation (Alamar Blue) assay, HT-29; assay type: cell-based, human
Experimental: (§1) Cell Proliferation (Alamar Blue) Assay
(§2) HT-29 (colorectal carcinoma, B-RafV600E), HCT116 (colorectal carcinoma, K Ras G13D), A375 (melanoma, B-RafV600E) and SK-Mel2 (melanoma, NRAS Q61R) cells (obtained from ATCC, USA) were seeded (5000 cells/well) in 96-well tissue culture plate and incubated at 37° C./5% CO2 for 16-24 hours. The cells were then treated with compounds, at concentrations typically from 0.0005 to 10 uM prepared in 3-fold serial dilutions. The plates were then incubated for 72 h at 37° C./5% CO2 in a moist environment. Then Alamar Blue™ reagent (final concentration 1×) was added to each well and incubated for 1-3 h at 37° C./5% CO2. The plates were read on fluorescence reader at 540 nm excitation and 590 nm emission wavelengths. The IC50 values were subsequently determined using a sigmoidal dose-response curve (variable slope) using GraphPad Prism® 5 software.

[2] = test system: HCT116 (colorectal carcinoma, K Ras G13D) cells; experiment: Cell proliferation (Alamar Blue) assay, HCT116; assay type: cell-based, human
Experimental: as §1, §2

[3] = Homo sapiens, HT-29, HT29 cells
[4] = Homo sapiens, HCT-116, HCT116 cells

Cc1cnc(Nc2ccc(F)cc2)cc1-n1cnc(C(=O)NC(CN)c2ccccc2)c1 (single isomer, unassigned; enantiomer #1) [Example 227, N-(2-amino-1-phenylethyl)-1-(2-((4-fluorophenyl)amino)-5-methylpyridin-4-yl)-1H-imidazole-4-carboxamide, Enantiomer #1]
pIC50 ([1]; HT29 cells): 6.60 to 7.00

Cc1cnc(NC2CCOCC2)nc1-n1cnc(C(=O)NC(CN)c2ccc(Cl)s2)c1 (single isomer, unassigned; enantiomer #1) [Example 290, N-(2-amino-1-(5-chlorothiophen-2-yl)ethyl)-1-(5-methyl-2-((tetrahydro-2H-pyran-4-yl)amino)pyrimidin-4-yl)-1H-imidazole-4-carboxamide (enantiomer #1)]
pIC50 ([2]; HCT116 cells): ≥ 7.00

Cc1cnc(Nc2ccccc2Cl)nc1-n1cc(NC(=O)N[C@H](CO)c2cccc(Cl)c2)cn1 [Cmpd 2, (S)-1-(1-(3-chlorophenyl)-2-hydroxyethyl)-3-(1-(2-((2-chloro-phenyl)amino)-5-methylpyrimidin-4-yl)-1H-pyrazol-4-yl)urea]
pIC50 [1, 3]: < 5.60
pIC50 [2, 4]: < 5.60

O=C(Nc1cnn(-c2ccnc(Nc3ccc(F)cc3Cl)n2)c1)N[C@H](CO)c1cccc(Cl)c1 [Cmpd 20, (S)-1-(1-(2-((2-chloro-4-fluoro-phenyl)amino)pyrimidin-4-yl)-1H-pyrazol-4-yl)-3-(1-(3-chloro-phenyl)-2-hydroxyethyl) urea]
pIC50 [2, 4]: < 5.60

Cc1cnc(NC2CC2)nc1-n1cc(C(=O)N[C@H](CO)c2cccc(Cl)c2)cn1 [Cmpd 39, (S)-N-(1-(3-chlorophenyl)-2-hydroxy-ethyl)-1-(2-(cyclopropyl-amino)-5-methyl-pyrimidin-4-yl)-1H-pyrazole-4-carboxamide]
pIC50 [1, 3]: < 5.60
pIC50 [2, 4]: < 5.60

Cc1cnc(Nc2ccc3c(c2)OCO3)nc1-n1cc(NC(=O)N[C@H](CO)c2ccccc2)cn1 [Cmpd 55, (S)-1-(1-(2-(benzo[d][1,3]dioxol-5-ylamino)-5-methyl-pyrimidin-4-yl)-1H-pyrazol-4-yl)-3-(2-hydroxy-1-phenylethyl) urea]
pIC50 [1, 3]: < 5.60
pIC50 [2, 4]: < 5.60

O=C(Nc1cnn(-c2ccnc(Nc3ccccc3Cl)n2)c1)N[C@H](CO)c1cccc(Cl)c1 [Example 1, (S)-1-(1-(3-chlorophenyl)-2-hydroxyethyl)-3-(1-(2-((2-chloro-phenyl)amino)pyrimidin-4-yl)-1H-pyrazol-4-yl) urea]
pIC50 [2, 4]: < 5.60

Cc1cnc(NC2CC2)nc1-n1cc(NC(=O)N[C@H](CO)c2cccc(Cl)c2)cn1 [Example 3, (S)-1-(1-(3-chlorophenyl)-2-hydroxyethyl)-3-(1-(2-(cyclo-propyl-amino)-5-methyl-pyrimidin-4-yl)-1H-pyrazol-4-yl)urea]
pIC50 [1, 3]: < 5.60
pIC50 [2, 4]: < 5.60

O=C(Nc1cnn(-c2ccnc(Nc3ccccc3Cl)n2)c1)N[C@@H](CO)c1ccccc1 [Example 4, (R)-1-(1-(2-((2-chlorophenyl)amino)pyrimidin-4-yl)-1H-pyrazol-4-yl)-3-(2-hydroxy-1-phenylethyl) urea]
pIC50 [1, 3]: < 5.60
pIC50 [2, 4]: < 5.60

O=C(Nc1cnn(-c2ccnc(NC3CC3)n2)c1)N[C@H](CO)c1cccc(Cl)c1 [Example 6, (S)-1-(1-(3-chlorophenyl)-2-hydroxyethyl)-3-(1-(2-(cyclo-propyl-amino)pyrimidin-4-yl)-1H-pyrazol-4-yl)urea]
pIC50 [1, 3]: < 5.60
pIC50 [2, 4]: < 5.60

O=C(Nc1cnn(-c2ccnc(Nc3ccccc3Cl)n2)c1)N[C@H](CO)c1ccccc1 [Example 7, (S)-1-(1-(2-((2-chlorophenyl)amino)pyrimidin-4-yl)-1H-pyrazol-4-yl)-3-(2-hydroxy-1-phenylethyl) urea]
pIC50 [1, 3]: < 5.60
pIC50 [2, 4]: < 5.60

O=C(Nc1cnn(-c2ccnc(N[C@H]3CC[C@H](O)CC3)n2)c1)N[C@H](CO)c1cccc(Cl)c1 [Example 14, 1-((S)-1-(3-chlorophenyl)-2-hydroxy-ethyl)-3-(1-(2-((trans-4-hydroxycyclo-hexyl)amino)pyrimidin-4-yl)-1H-pyrazol-4-yl)urea]
pIC50 [2, 4]: < 5.60

COc1cc(N2CCN(C(C)=O)CC2)ccc1Nc1nccc(-n2cc(NC(=O)N[C@H](CO)c3cccc(Cl)c3)cn2)n1 [Example 15, (S)-1-(1-(2-((4-(4-acetyl-piperazin-1-yl)-2-methoxy-phenyl)amino)pyrimidin-4-yl)-1H-pyrazol-4-yl)-3-(1-(3-chloro-phenyl)-2-hydroxyethyl) urea]
pIC50 [2, 4]: < 5.60

O=C(Nc1cnn(-c2ccnc(NC3CC3)n2)c1)NC(CO)c1cccc(Cl)c1 (centres unmarked) [Example 16, 1-(1-(3-chlorophenyl)-2-hydroxy-ethyl)-3-(1-(2-(cyclo-propylamino)pyrimidin-4-yl)-1H-pyrazol-4-yl)urea]
pIC50 [2, 4]: < 5.60

CN1CCN(c2ccc(Nc3nccc(-n4cc(NC(=O)N[C@H](CO)c5cccc(Cl)c5)cn4)n3)cc2)CC1 [Example 22, (S)-1-(1-(3-chlorophenyl)-2-hydroxy-ethyl)-3-(1-(2-((4-(4-methyl-piperazin-1-yl)-phenyl)amino)pyrimidin-4-yl)-1H-pyrazol-4-yl)urea]
pIC50 [1, 3]: < 5.60
pIC50 [2, 4]: < 5.60

O=C(Nc1cnn(-c2ccnc(Nc3cccnc3)n2)c1)N[C@H](CO)c1cccc(Cl)c1 [Example 24, (S)-1-(1-(3-chlorophenyl)-2-hydroxy-ethyl)-3-(1-(2-(pyridin-3-yl-amino)pyrimidin-4-yl)-1H-pyrazol-4-yl)urea]
pIC50 [1, 3]: < 5.60
pIC50 [2, 4]: < 5.60

O=C(Nc1cnn(-c2nc(NC3CC3)ncc2F)c1)N[C@H](CO)c1cccc(Cl)c1 [Example 30, (S)-1-(1-(3-chlorophenyl)-2-hydroxy-ethyl)-3-(1-(2-(cyclo-propyl-amino)-5-fluoro-pyrimidin-4-yl)-1H-pyrazol-4-yl)urea]
pIC50 [1, 3]: < 5.60
pIC50 [2, 4]: < 5.60

O=C(Nc1cnn(-c2ccnc(Nc3ccccc3)c2)c1)NC(CO)c1cccc(Cl)c1 (centres unmarked) [Example 33, 1-(1-(3-chlorophenyl)-2-hydroxy-ethyl)-3-(1-(2-(phenyl-amino)-pyridin-4-yl)-1H-pyrazol-4-yl)urea]
pIC50 [2, 4]: < 5.60

Cc1cnc(Nc2ccc(F)cc2Cl)nc1-n1cc(C(=O)N[C@H](CO)c2cccc(Cl)c2)cn1 [Example 35, (S)-1-(2-((2-chloro-4-fluoro-phenyl)amino)-5-methyl-pyrimidin-4-yl)-N-(1-(3-chloro-phenyl)-2-hydroxy-ethyl)-1H-pyrazole-4-carboxamide]
pIC50 [2, 4]: < 5.60

Cc1cnc(Nc2ccc(F)cc2Cl)nc1-n1cc(NC(=O)NC(CO)c2cccc(Cl)c2)cn1 (centres unmarked) [Example 36, 1-(1-(2-((2-chloro-4-fluorophenyl)-amino)-5-methyl-pyrimidin-4-yl)-1H-pyrazol-4-yl)-3-(1-(3-chlorophenyl)-2-hydroxy-ethyl)urea]
pIC50 [2, 4]: < 5.60

Cc1cnc(Nc2ccc3c(c2)OCO3)nc1-n1cc(NC(=O)NC(CO)c2cccc(Cl)c2)cn1 (centres unmarked) [Example 37, 1-(1-(2-(benzo[d][1,3]dioxol-5-ylamino)-5-methyl-pyrimidin-4-yl)-1H-pyrazol-4-yl)-3-(1-(3-chlorophenyl)-2-hydroxy-ethyl)urea]
pIC50 [1, 3]: < 5.60
pIC50 [2, 4]: 5.60 to 6.30

Cc1cnc(NC2CC2)nc1-n1cc(C(=O)NC(CO)c2cccc(Cl)c2)cn1 (centres unmarked) [Example 40, N-(1-(3-chlorophenyl)-2-hydroxy-ethyl)-1-(2-(cyclopropyl-amino)-5-methyl-pyrimidin-4-yl)-1H-pyrazole-4-carboxamide]
pIC50 [1, 3]: < 5.60
pIC50 [2, 4]: < 5.60

Cc1cnc(Nc2ccc3c(c2)OCO3)nc1-n1cc(C(=O)NC(CO)c2cccc(Cl)c2)cn1 (centres unmarked) [Example 41, 1-(2-(benzo[d][1,3]dioxol-5-ylamino)-5-methyl-pyrimidin-4-yl)-N-(1-(3-chloro-phenyl)-2-hydroxy-ethyl)-1H-pyrazole-4-carboxamide]
pIC50 [1, 3]: < 5.60
pIC50 [2, 4]: < 5.60

Cc1cnc(Nc2ccc3c(c2)OCO3)nc1-n1cc(NC(=O)N[C@H](CO)c2cccc(Cl)c2)cn1 [Example 44, (S)-1-(1-(2-(benzo[d][1,3]dioxol-5-ylamino)-5-methyl-pyrimidin-4-yl)-1H-pyrazol-4-yl)-3-(1-(3-chloro-phenyl)-2-hydroxy-ethyl)urea]
pIC50 [1, 3]: < 5.60
pIC50 [2, 4]: < 5.60

Cc1cnc(Nc2ccc(F)cc2Cl)nc1-n1cc(C(=O)NC(CO)c2cccc(Cl)c2)cn1 (centres unmarked) [Example 45, 1-(2-((2-chloro-4-fluorophenyl)amino)-5-methyl-pyrimidin-4-yl)-N-(1-(3-chlorophenyl)-2-hydroxy-ethyl)-1H-pyrazole-4-carboxamide]
pIC50 [1, 3]: < 5.60
pIC50 [2, 4]: < 5.60

O=C(NC(CO)c1cccc(Cl)c1)c1ccn(-c2ccnc(Nc3ccccc3)c2)c1 (centres unmarked) [Example 46, N-(1-(3-chloro-phenyl)-2-hydroxy-ethyl)-1-(2-(phenyl-amino)pyridin-4-yl)-1H-pyrrole-3-carboxamide]
pIC50 [1, 3]: < 5.60
pIC50 [2, 4]: < 5.60

O=C(N[C@H](CO)c1cccc(Cl)c1)c1ccn(-c2ccnc(Nc3ccc(F)cc3Cl)n2)c1 [Example 112, (S)-1-(2-((2-chloro-4-fluorophenyl)-amino)pyrimidin-4-yl)-N-(1-(3-chlorophenyl)-2-hydroxy-ethyl)-1H-pyrrole-3-carboxamide]
pIC50 [2, 4]: < 5.60

Cc1cnc(NC2CCOCC2)nc1-n1cnc(C(=O)NC(CN)c2ccc(Cl)s2)c1 (centres unmarked) [Example 274, N-(2-amino-1-(5-chlorothiophen-2-yl)ethyl)-1-(5-methyl-2-((tetrahydro-2H-pyran-4-yl)amino)pyrimidin-4-yl)-1H-imidazole-4-carboxamide]
pIC50 ([2]; HCT116 cells): ≥ 7.00
